Test system: MicroTom cotyledon explants
Test: Transient GUS expression in MicroTom cotyledon explants
Assay type: cell-based, Lycopersicon esculentum
Conditions: for % High transient expression / % Low transient expression / % No transient expression: GUS, after 5 days on selection media
Experimental: Cotyledon explants were isolated from seedlings 7 days after sowing seeds on Davis Germination medium. Cotyledon explants were prepared by bathing them in 6 mL of TXD liquid medium (4.3 g/L MS salts, 2 mL/L Gamborg's B-5 500× salts, 4 mg/L pCPA (p-chlorophenoxyactic acid), 0.005 mg/L kinetin, and 30 g/L sucrose) to prevent desiccation and trimming them at both ends using a #15 feather blade. Immediately after the trimming, the cotyledon explants were gently placed on “feeder plates” containing UC2PC medium (2.2 g/L MS salts, 2.2 mL/L, Gamborg's B-5 500× salts, 0.2 mg/L 2,4-D, 4 mg/L pCPA, 0.1 mg/L kinetin, 30 g/L sucrose, 0.2 g/L potassium phosphate, 10 g/L agar, 8 mL/L acetosyringone (4.91 mg/mL), and 4 mL galacturonic acid (53.05 mg/mL)). The “feeder plates” are made by overlaying 2 mL of tobacco suspension cells and a sterile Whatman filter on the plates containing UC2PC medium. The cotyledon explants were gently poked with a sharp forceps (ASIM5311, Stainless French, made in Switzerland). Usually six to ten pokes were made per explant depending the size of cotyledons. Right after poking, the cotyledons were inoculated with Agrobacterium containing pMON15715 (FIG. 1) by adding 3 mL of the adjusted Agrobacterium solution on top of the cotyledons. The plates were incubated for 10 min at room temperature, and the Agrobacterium solution was aspirated with a sterile pipette. The cotyledons were then co-cultured for 2 days at 23-24° C. under a 16-h photoperiod. The co-culture plates were placed in plastic bags to keep the humidity, which is preferable for MicroTom growth.
Two days after co-cultivation, cotyledons were transferred to shoot induction medium SI-2 (4.3 g/L MS salts, 2 mL/L, Gamborg's B-5 500× salts, 30 g/L sucrose, 10 g/L agar, 500 mg/L carbenicillin, 100 mg/L cefotaxime, 0.1 mg/L IAA, and 2 mg/L zeatin riboside) supplemented with 10 μM of lipoic acid and 100 mg/L kanamycin. Three to four weeks after the induction stage, the cotyledons formed buds or shoots. Cotyledons with buds or shoots were separated by individual event and transferred to, shoot elongation medium E2 (SI-2 medium without IAA), supplemented with 100 mg/L kanamycin for two to four weeks. All culture plates were placed in a culture box, placed inside a plastic bag, and cultured at 23-24° C. under a 16 h photoperiod.
At the same time the tissue browning severity was measured, transient expression of the gus gene was scored. High transient expression was defined as an explant having more than 30% of the pokes that produced GUS blue spots. Low transient expression was defined as an explant having less than 30% of the pokes that produced GUS blue spots about 5 days after culturing on selection medium. Nontransient expression was determined as an explant having no GUS blue spot. With the lipoic acid treatments at the concentrations of 10 and 50 μM, the percentage of explants having high transient expression doubled from 30% (non-lipoic acid treatment) up to 60.9% (Table 2). […] When lipoic acid was used in the selection process at the concentrations of 10, 50 and 100 μM, 100% of explants transiently expressed the GUS gene, but without lipoic acid or lipoic acid at the concentration of 5 μM, 20% and 9.5% of explants had no GUS transient expression.

O=C(O)CCCCC1CCSS1 (centres unmarked) [lipoic acid, 1,2-dithiolane-3-pentanoic acid]
% High transient expression (5 μM lipoic acid): 42.9% | % Low transient expression (5 μM lipoic acid): 47.6% | % No transient expression (5 μM lipoic acid): 9.5% | % High transient expression (10 μM lipoic acid): 60.9% | % Low transient expression (10 μM lipoic acid): 39.1% | % No transient expression (10 μM lipoic acid): 0% | % High transient expression (50 μM lipoic acid): 56.5% | % Low transient expression (50 μM lipoic acid): 43.5% | % No transient expression (50 μM lipoic acid): 0% | % High transient expression (100 μM lipoic acid): 34.8% | % Low transient expression (100 μM lipoic acid): 65.2% | % No transient expression (100 μM lipoic acid): 0% | % of explants that transiently expressed the GUS gene (lipoic acid at 10, 50 and 100 μM in the selection process): 100% | increase of the percentage of explants having high level of transient expression (summary, MicroTom transformation): 2 fold
